According to ChEMBL document CHEMBL5696441 (Nat Chem Biol, 2011):

Legend:
[1] = target: Mitogen-activated protein kinase kinase kinase kinase 5 (Homo sapiens) (UniProt Q9Y4K4); experiment: Inhibition of MAP4K5 (unknown origin) assessed as remaining activity at 1 uM by Kinome scan method relative to control
[2] = target: Calcium/calmodulin-dependent protein kinase type II subunit alpha (Homo sapiens) (UniProt Q9UQM7); experiment: Inhibition of CAMK2A (unknown origin) assessed as remaining activity at 1 uM by Kinome scan method relative to control
Calcium/calmodulin-dependent protein kinase type II subunit alpha (Homo sapiens), sequence (Q9UQM7 whole entry): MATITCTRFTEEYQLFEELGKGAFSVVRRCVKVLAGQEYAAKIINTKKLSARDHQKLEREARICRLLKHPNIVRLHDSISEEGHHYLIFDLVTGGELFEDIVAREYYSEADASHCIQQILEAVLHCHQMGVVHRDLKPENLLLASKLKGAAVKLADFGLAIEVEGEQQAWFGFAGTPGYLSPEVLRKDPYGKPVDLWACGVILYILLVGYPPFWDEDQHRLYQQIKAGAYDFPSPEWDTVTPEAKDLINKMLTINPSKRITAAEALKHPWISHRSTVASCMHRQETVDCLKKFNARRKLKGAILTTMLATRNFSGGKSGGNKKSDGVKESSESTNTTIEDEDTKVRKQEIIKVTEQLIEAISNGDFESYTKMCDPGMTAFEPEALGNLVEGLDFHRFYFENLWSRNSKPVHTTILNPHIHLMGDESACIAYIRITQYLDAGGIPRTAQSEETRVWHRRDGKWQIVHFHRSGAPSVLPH

CYP1A = CYP1A (Homo sapiens, UniProt P04798+P05177); experiment: Inhibition of CYP1A (unknown origin) at 10 uM relative to control; assay type: ADME, protein assay
CYP3A4 = CYP3A4 (Homo sapiens, UniProt P08684); experiment: Inhibition of CYP3A4 (unknown origin) at 10 uM relative to control; assay type: ADME
[3] = target: Rhodopsin kinase GRK7 (Homo sapiens) (UniProt Q8WTQ7); experiment: Inhibition of human GRK7 assessed as residual activity at 1 uM using casein as substrate in presence of 33P-ATP by ProQinase assay relative to control
Rhodopsin kinase GRK7 (Homo sapiens), sequence (Q8WTQ7 whole entry): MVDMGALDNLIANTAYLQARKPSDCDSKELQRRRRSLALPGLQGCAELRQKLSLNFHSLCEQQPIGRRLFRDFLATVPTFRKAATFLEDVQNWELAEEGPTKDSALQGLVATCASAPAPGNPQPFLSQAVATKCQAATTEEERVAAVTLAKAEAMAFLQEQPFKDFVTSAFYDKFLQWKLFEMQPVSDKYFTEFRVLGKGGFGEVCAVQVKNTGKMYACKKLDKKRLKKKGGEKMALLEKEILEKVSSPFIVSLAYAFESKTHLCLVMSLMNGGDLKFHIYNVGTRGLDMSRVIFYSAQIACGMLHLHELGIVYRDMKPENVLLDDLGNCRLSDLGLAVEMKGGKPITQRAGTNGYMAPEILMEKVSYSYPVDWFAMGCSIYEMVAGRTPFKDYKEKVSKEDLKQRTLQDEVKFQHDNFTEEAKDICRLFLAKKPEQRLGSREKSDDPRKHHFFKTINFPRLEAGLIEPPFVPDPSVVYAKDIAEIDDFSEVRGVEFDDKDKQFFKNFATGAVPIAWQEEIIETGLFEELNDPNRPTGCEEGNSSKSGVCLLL

[4] = target: Dual specificity mitogen-activated protein kinase kinase 2 (Homo sapiens) (UniProt P36507); experiment: Inhibition of human MEK2 assessed as residual activity at 1 uM using RBER-IRStide as substrate in presence of 33P-ATP by ProQinase assay relative to control
Dual specificity mitogen-activated protein kinase kinase 2 (Homo sapiens), sequence (P36507 whole entry): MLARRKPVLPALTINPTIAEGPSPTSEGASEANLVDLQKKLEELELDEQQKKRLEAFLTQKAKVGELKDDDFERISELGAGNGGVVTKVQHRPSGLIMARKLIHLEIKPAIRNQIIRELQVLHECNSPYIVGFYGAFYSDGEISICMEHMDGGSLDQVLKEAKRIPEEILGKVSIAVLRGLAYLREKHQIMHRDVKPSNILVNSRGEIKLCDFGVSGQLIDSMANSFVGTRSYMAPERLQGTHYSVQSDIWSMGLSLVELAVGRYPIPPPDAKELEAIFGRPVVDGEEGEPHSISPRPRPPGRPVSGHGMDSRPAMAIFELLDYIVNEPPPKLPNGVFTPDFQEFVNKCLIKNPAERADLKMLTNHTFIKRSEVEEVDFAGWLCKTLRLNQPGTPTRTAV

[5] = target: Tyrosine-protein kinase Fer (Homo sapiens) (UniProt P16591); experiment: Inhibition of human FER assessed as residual activity at 1 uM using polyEY as substrate in presence of 33P-ATP by ProQinase assay relative to control
[6] = target: MAP kinase-activated protein kinase 5 (Homo sapiens) (UniProt Q8IW41); experiment: Inhibition of human MAPKAPK5 assessed as residual activity at 1 uM using RBER-CHKtide as substrate in presence of 33P-ATP by ProQinase assay relative to control
[7] = target: Mitogen-activated protein kinase 13 (Homo sapiens) (UniProt O15264); experiment: Inhibition of human p38delta assessed as residual activity at 1 uM using RBER-CHKtide as substrate in presence of 33P-ATP by ProQinase assay relative to control
[8] = target: LIM domain kinase 2 (Homo sapiens) (UniProt P53671); experiment: Inhibition of human LIMK2 assessed as residual activity at 1 uM using CFL1 as substrate in presence of 33P-ATP by ProQinase assay relative to control
LIM domain kinase 2 (Homo sapiens), sequence (P53671 whole entry, looked up, the tested form may be a part): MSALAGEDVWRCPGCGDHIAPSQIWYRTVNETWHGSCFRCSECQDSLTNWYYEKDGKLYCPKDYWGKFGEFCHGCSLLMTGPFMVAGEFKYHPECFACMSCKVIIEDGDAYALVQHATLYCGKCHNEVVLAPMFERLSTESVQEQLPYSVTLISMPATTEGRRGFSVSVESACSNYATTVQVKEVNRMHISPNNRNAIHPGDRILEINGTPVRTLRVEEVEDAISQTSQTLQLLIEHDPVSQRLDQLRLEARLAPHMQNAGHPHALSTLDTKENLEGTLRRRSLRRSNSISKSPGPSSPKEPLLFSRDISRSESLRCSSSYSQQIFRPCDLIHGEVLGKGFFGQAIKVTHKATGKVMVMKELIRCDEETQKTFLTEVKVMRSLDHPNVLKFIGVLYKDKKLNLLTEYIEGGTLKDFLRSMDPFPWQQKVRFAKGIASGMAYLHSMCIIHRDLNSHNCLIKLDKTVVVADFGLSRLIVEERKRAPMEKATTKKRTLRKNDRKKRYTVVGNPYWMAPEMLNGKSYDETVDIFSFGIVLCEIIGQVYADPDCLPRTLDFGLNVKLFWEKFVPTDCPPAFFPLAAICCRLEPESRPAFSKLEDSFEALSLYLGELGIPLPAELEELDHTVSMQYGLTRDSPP

[9] = target: T1, Serine/threonine-protein kinase Nek2 (Homo sapiens) (UniProt P51955); experiment: Inhibition of human NEK2 assessed as residual activity at 1 uM using RB-CTF as substrate in presence of 33P-ATP by ProQinase assay relative to control
T1 sequence (whole entry): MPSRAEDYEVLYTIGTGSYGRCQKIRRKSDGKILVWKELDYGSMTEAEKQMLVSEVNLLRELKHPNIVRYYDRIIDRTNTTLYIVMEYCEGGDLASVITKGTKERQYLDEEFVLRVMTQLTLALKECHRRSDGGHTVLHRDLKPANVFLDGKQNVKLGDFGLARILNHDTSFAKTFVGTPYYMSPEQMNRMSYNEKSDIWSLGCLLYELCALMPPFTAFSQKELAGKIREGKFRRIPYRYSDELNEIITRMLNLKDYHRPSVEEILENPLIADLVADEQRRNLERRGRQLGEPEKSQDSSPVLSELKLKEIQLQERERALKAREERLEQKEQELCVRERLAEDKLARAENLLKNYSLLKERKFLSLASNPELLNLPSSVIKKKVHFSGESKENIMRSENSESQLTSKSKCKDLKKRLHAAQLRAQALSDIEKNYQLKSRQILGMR

[10] = target: Calcium/calmodulin-dependent protein kinase type II subunit beta (Homo sapiens) (UniProt Q13554); experiment: Inhibition of human CAMK2B assessed as residual activity at 1 uM using RBER-CHKtide as substrate in presence of 33P-ATP by ProQinase assay relative to control
[11] = target: T2, Phosphorylase b kinase gamma catalytic chain, liver/testis isoform (Homo sapiens) (UniProt P15735); experiment: Inhibition of human PHKG2 assessed as residual activity at 1 uM using RBER-CHKtide as substrate in presence of 33P-ATP by ProQinase assay relative to control
T2 sequence (whole entry): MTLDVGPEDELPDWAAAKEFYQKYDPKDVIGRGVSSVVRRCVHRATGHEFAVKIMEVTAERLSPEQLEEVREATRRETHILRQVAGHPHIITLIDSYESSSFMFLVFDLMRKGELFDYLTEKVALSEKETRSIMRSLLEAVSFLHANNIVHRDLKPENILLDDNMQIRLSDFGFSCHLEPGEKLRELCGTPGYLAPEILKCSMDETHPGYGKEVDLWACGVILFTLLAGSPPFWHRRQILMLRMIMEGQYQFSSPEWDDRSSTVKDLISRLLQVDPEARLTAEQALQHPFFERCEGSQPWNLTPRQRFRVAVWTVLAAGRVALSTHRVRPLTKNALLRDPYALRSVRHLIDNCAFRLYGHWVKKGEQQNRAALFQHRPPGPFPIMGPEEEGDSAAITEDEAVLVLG

[12] = target: Serine/threonine-protein kinase PAK 5 (Homo sapiens) (UniProt Q9P286); experiment: Inhibition of human PAK7 assessed as residual activity at 1 uM using bio-4xCHKT as substrate in presence of 33P-ATP by ProQinase assay relative to control
[13] = test system: Epidermal growth factor receptor (Homo sapiens), P00533 [UNDEFINED MUTATION]; experiment: Inhibition of EGFR L747-S752del/P753S mutant (unknown origin) assessed as remaining activity at 1 uM by Kinome scan method relative to control
Epidermal growth factor receptor (Homo sapiens), P00533 [UNDEFINED MUTATION], sequence (P00533 whole entry, looked up, stated change not applied): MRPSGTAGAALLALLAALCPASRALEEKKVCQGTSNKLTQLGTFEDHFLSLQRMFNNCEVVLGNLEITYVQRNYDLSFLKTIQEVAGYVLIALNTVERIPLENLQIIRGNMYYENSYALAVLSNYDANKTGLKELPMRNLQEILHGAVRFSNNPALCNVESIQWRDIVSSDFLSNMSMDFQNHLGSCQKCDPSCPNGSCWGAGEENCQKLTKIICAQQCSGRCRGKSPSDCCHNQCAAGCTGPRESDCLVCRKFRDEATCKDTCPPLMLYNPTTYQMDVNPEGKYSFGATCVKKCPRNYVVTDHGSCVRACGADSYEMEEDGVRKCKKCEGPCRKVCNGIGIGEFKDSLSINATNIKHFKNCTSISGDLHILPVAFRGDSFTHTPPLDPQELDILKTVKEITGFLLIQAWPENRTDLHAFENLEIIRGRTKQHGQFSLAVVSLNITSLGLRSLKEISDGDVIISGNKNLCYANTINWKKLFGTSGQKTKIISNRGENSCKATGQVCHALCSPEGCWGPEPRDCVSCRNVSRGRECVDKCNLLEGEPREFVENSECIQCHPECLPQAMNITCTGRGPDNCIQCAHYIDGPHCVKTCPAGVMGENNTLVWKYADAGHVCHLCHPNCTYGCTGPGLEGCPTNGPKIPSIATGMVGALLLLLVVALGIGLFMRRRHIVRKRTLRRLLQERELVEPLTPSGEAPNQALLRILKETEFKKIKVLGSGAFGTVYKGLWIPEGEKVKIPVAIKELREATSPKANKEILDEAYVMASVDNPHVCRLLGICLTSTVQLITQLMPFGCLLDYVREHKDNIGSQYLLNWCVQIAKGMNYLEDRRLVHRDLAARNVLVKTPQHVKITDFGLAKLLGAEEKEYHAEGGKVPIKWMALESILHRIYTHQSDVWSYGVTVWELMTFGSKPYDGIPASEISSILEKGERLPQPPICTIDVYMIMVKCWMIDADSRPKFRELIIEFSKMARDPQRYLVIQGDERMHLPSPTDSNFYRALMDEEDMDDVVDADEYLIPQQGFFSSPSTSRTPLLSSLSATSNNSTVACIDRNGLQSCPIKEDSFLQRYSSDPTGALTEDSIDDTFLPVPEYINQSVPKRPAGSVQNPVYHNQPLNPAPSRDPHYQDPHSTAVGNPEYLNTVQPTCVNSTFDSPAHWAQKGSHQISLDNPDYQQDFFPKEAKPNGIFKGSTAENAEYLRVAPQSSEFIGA

[14] = target: RAC-alpha serine/threonine-protein kinase (Homo sapiens) (UniProt P31749); experiment: Inhibition of human AKT1 assessed as residual activity at 1 uM using RBER-GSK3(14-27) as substrate in presence of 33P-ATP by ProQinase assay relative to control
[15] = target: Platelet-derived growth factor receptor alpha (Homo sapiens) (UniProt P16234); experiment: Inhibition of PDGFRalpha (unknown origin) assessed as remaining activity at 1 uM by Kinome scan method relative to control
Platelet-derived growth factor receptor alpha (Homo sapiens), sequence (P16234 whole entry): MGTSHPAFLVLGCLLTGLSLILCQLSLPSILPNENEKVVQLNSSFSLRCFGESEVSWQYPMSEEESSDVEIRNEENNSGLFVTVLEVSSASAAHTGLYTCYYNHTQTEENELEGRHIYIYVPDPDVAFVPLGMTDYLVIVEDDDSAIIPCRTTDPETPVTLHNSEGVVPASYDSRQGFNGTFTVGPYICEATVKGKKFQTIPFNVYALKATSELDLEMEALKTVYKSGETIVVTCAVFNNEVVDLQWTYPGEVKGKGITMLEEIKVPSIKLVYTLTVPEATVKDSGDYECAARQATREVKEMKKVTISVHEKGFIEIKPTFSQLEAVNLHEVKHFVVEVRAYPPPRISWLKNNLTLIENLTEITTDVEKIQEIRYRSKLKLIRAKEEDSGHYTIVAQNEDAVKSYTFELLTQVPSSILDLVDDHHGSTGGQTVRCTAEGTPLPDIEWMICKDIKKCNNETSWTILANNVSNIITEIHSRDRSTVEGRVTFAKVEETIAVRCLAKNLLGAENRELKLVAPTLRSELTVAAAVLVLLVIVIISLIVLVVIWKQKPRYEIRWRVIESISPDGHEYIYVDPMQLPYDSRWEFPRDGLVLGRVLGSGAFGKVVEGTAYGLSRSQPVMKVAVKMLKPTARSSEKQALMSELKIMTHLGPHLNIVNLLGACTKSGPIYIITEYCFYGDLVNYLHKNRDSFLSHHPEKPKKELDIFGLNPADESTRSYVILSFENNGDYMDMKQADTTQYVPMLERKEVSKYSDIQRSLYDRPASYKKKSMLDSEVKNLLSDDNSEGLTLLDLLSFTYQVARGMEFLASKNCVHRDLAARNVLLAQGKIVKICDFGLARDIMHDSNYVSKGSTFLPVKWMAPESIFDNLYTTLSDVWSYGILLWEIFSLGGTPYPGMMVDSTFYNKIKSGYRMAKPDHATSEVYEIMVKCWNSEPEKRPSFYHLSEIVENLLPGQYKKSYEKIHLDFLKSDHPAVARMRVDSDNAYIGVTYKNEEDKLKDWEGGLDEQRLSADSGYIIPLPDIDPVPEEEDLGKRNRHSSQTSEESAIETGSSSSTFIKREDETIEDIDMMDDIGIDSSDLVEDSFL

[16] = target: Serine/threonine-protein kinase B-raf (Homo sapiens) (UniProt P15056); experiment: Inhibition of human BRAF assessed as residual activity at 1 uM using MEK1-K97M as substrate in presence of 33P-ATP by ProQinase assay relative to control
[17] = target: Mitogen-activated protein kinase kinase kinase 2 (Homo sapiens) (UniProt Q9Y2U5); experiment: Inhibition of MAP3K2 (unknown origin) assessed as remaining activity at 1 uM by Kinome scan method relative to control
Mitogen-activated protein kinase kinase kinase 2 (Homo sapiens), sequence (Q9Y2U5 whole entry): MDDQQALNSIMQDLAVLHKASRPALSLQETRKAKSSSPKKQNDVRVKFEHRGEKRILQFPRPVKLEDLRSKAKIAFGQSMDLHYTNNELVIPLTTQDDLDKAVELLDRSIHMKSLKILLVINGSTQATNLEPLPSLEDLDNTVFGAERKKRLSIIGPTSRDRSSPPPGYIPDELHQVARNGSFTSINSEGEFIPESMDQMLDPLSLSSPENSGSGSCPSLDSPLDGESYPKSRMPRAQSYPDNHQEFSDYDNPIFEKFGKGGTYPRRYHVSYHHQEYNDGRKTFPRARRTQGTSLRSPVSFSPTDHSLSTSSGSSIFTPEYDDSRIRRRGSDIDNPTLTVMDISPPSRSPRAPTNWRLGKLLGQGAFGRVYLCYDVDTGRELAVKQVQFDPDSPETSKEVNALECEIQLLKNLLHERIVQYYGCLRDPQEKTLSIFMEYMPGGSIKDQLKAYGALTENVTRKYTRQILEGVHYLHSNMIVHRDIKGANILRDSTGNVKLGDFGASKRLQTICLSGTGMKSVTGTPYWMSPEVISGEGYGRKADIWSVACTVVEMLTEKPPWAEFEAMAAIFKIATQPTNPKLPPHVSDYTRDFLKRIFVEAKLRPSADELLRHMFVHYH

[18] = target: G protein-coupled receptor kinase 6 (Homo sapiens) (UniProt P43250); experiment: Inhibition of human GRK6 assessed as residual activity at 1 uM using casein as substrate in presence of 33P-ATP by ProQinase assay relative to control
[19] = target: Tyrosine-protein kinase JAK1 (Homo sapiens) (UniProt P23458); experiment: Inhibition of JAK1 JH1 domain (unknown origin) assessed as remaining activity at 1 uM by Kinome scan method relative to control

O=C1c2ccc(Nc3ccc(F)cc3F)cc2CCc2ccc(OC[C@H](O)CO)cc21 [Skepinone-L]
Activity [1]: 100%
Activity [2]: 100%
inhibition at 10 µM (CYP1A): -19%
inhibition at 10 µM (CYP3A4): 34%
Activity [3]: 107%
Activity [4]: 99%
Activity [5]: 101%
Activity [6]: 97%
Activity [7]: 80%
Activity [8]: 100%
Activity [9]: 85%
Activity [10]: 86%
Activity [11]: 73%
Activity [12]: 87%
Activity [13]: 100%
Activity [14]: 102%
Activity [15]: 100%
Activity [16]: 112%
Activity [17]: 100%
Activity [18]: 82%
Activity [19]: 100%
